Active and inactive are the calls of the source. The rule behind the calls is not given here.
System: not listed separately
Assay: Hepatic extraction ratio in mouse liver microsomes at 1 uM in presence of NADPH by LC-MS method
Format: ADME, microsome
Conditions: read-out: ERH

Row | Structure (SMILES) | hepatic extraction ratio at 1 µM
1 | CN1CCN(CCNc2nc(Nc3ccc(Cl)c(F)c3)nc3ccccc23)CC1.Cl.Cl | 0.44
2 | CN1CCC(Nc2nc(Nc3ccc(Cl)c(F)c3)nc3ccccc23)CC1.Cl.Cl | 0.16

System: Plasmodium falciparum
Assay: Antimalarial activity against Plasmodium falciparum NF54 harboring pfs16-LUC-GFP late stage 4 to 5 gametocytes after 48 hrs by MitoTracker Red staining based confocal microscopy
Format: functional
Conditions: NF54, 48 h

Row | Structure (SMILES) | EC50 [nM]
3 | CN1CCN(CCNc2nc(Nc3ccc(Cl)c(F)c3)nc3ccccc23)CC1.Cl.Cl | 4000
4 | CN1CCC(Nc2nc(Nc3ccc(Cl)c(F)c3)nc3ccccc23)CC1.Cl.Cl | 2700

System: Liver
Assay: Drug metabolism in mouse liver microsomes assessed as N-demethylation of methyl piperidine or piperazine at 1 uM after 60 mins in presence of NADPH by LC-MS method
Format: ADME, microsome
Conditions: 1 h

Row | Structure (SMILES) | Drug metabolism
5 | CN1CCN(CCNc2nc(Nc3ccc(Cl)c(F)c3)nc3ccccc23)CC1.Cl.Cl | Metabolite_Detected
6 | CN1CCC(Nc2nc(Nc3ccc(Cl)c(F)c3)nc3ccccc23)CC1.Cl.Cl | Metabolite_Detected

System: not listed separately
Assay: Intrinsic clearance in human liver microsomes at 1 uM in presence of NADPH by LC-MS method
Format: ADME, microsome
Conditions: read-out: CLH

Row | Structure (SMILES) | microsomal CLint at 1 µM [µL/min/mg]
7 | CN1CCN(CCNc2nc(Nc3ccc(Cl)c(F)c3)nc3ccccc23)CC1.Cl.Cl | 23
8 | CN1CCC(Nc2nc(Nc3ccc(Cl)c(F)c3)nc3ccccc23)CC1.Cl.Cl | 10

System: not listed separately
Assay: Ratio of EC50 for Plasmodium falciparum NF54-pfs16-LUC-GFP ring stage gametocytes to EC50 for Plasmodium falciparum 3D7 asexual blood stage infected in human erythrocytes
Format: functional
Conditions: not given

Row | Structure (SMILES) | Ratio EC50
9 | CN1CCN(CCNc2nc(Nc3ccc(Cl)c(F)c3)nc3ccccc23)CC1.Cl.Cl | 10
10 | CN1CCC(Nc2nc(Nc3ccc(Cl)c(F)c3)nc3ccccc23)CC1.Cl.Cl | 10

System: Plasmodium falciparum
Assay: Antimalarial activity against Plasmodium falciparum 3D7 infected in human erythrocytes assessed as arrest at trophozoite stage of asexual life cycle leading to parasite death at 10 times EC50 up to 48 hrs by Giemsa-staining based assay relative to control
Format: functional, cell-based
Conditions: not given

Row | Structure (SMILES) | Activity
11 | CN1CCN(CCNc2nc(Nc3ccc(Cl)c(F)c3)nc3ccccc23)CC1.Cl.Cl | inactive
12 | CN1CCC(Nc2nc(Nc3ccc(Cl)c(F)c3)nc3ccccc23)CC1.Cl.Cl | inactive

System: Plasmodium falciparum
Assay: Antimalarial activity against Plasmodium falciparum 3D7 asexual blood stage infected in human erythrocytes incubated for 72 hrs by LDH assay
Format: functional, cell-based
Conditions: 3D7, 72 h

Row | Structure (SMILES) | EC50 [nM]
13 | CN1CCN(CCNc2nc(Nc3ccc(Cl)c(F)c3)nc3ccccc23)CC1.Cl.Cl | 27
14 | CN1CCC(Nc2nc(Nc3ccc(Cl)c(F)c3)nc3ccccc23)CC1.Cl.Cl | 28

System: Liver
Assay: Drug metabolism in human liver microsomes assessed as mono-oxygenation at 6th position of quinazoline at 1 uM after 60 mins in presence of NADPH by LC-MS method
Format: ADME, microsome
Conditions: 1 h

Row | Structure (SMILES) | Drug metabolism
15 | CN1CCN(CCNc2nc(Nc3ccc(Cl)c(F)c3)nc3ccccc23)CC1.Cl.Cl | Metabolite_Detected
16 | CN1CCC(Nc2nc(Nc3ccc(Cl)c(F)c3)nc3ccccc23)CC1.Cl.Cl | Metabolite_Detected

System: Liver
Assay: Drug metabolism in mouse liver microsomes assessed as mono-oxygenation at 6th position of quinazoline at 1 uM after 60 mins in presence of NADPH by LC-MS method
Format: ADME, microsome
Conditions: 1 h

Row | Structure (SMILES) | Drug metabolism
17 | CN1CCN(CCNc2nc(Nc3ccc(Cl)c(F)c3)nc3ccccc23)CC1.Cl.Cl | Metabolite_Detected
18 | CN1CCC(Nc2nc(Nc3ccc(Cl)c(F)c3)nc3ccccc23)CC1.Cl.Cl | Metabolite_Detected

System: Liver
Assay: Drug metabolism in human liver microsomes assessed as N-demethylation of methyl piperidine or piperazine at 1 uM after 60 mins in presence of NADPH by LC-MS method
Format: ADME, microsome
Conditions: 1 h

Row | Structure (SMILES) | Drug metabolism
19 | CN1CCN(CCNc2nc(Nc3ccc(Cl)c(F)c3)nc3ccccc23)CC1.Cl.Cl | Metabolite_Detected
20 | CN1CCC(Nc2nc(Nc3ccc(Cl)c(F)c3)nc3ccccc23)CC1.Cl.Cl | Metabolite_Detected

System: Plasmodium falciparum
Assay: Antimalarial activity against synchronous culture of Plasmodium falciparum 3D7 infected in human erythrocytes assessed as development arrest at ring stage of asexual life cycle leading to parasite death at 10 times EC50 up to 48 hrs by Giemsa-staining based assay relative to control
Format: functional, cell-based
Conditions: not given

Row | Structure (SMILES) | Activity
21 | CN1CCN(CCNc2nc(Nc3ccc(Cl)c(F)c3)nc3ccccc23)CC1.Cl.Cl | Active
22 | CN1CCC(Nc2nc(Nc3ccc(Cl)c(F)c3)nc3ccccc23)CC1.Cl.Cl | Active

System: not listed separately
Assay: Half life in mouse liver microsomes at 1 uM in presence of NADPH by LC-MS method
Format: ADME, microsome
Conditions: not given

Row | Structure (SMILES) | half-life at 1 µM [h]
23 | CN1CCN(CCNc2nc(Nc3ccc(Cl)c(F)c3)nc3ccccc23)CC1.Cl.Cl | 0.783
24 | CN1CCC(Nc2nc(Nc3ccc(Cl)c(F)c3)nc3ccccc23)CC1.Cl.Cl | 3.2

System: Plasma
Assay: Drug uptake in Plasmodium berghei ANKA infected Swiss black mouse plasma at 20 mg/kg, po via gavage measured after 20 hrs
Format: ADME, organism-based
Conditions: in vivo

Row | Structure (SMILES) | Drug uptake
25 | CN1CCN(CCNc2nc(Nc3ccc(Cl)c(F)c3)nc3ccccc23)CC1.Cl.Cl | Active
26 | CN1CCC(Nc2nc(Nc3ccc(Cl)c(F)c3)nc3ccccc23)CC1.Cl.Cl | Active

System: Plasmodium falciparum
Assay: Antimalarial activity against Plasmodium falciparum NF54 harboring pfs16-LUC-GFP ring stage gametocytes after 24 hrs by MitoTracker Red staining based confocal microscopy
Format: functional
Conditions: NF54, 24 h

Row | Structure (SMILES) | EC50 [nM]
27 | CN1CCN(CCNc2nc(Nc3ccc(Cl)c(F)c3)nc3ccccc23)CC1.Cl.Cl | 207
28 | CN1CCC(Nc2nc(Nc3ccc(Cl)c(F)c3)nc3ccccc23)CC1.Cl.Cl | 220

System: not listed separately
Assay: Selectivity index, ratio of EC50 for human HepG2 cells to EC50 for Plasmodium falciparum 3D7 asexual blood stage infected in human erythrocytes
Format: toxicity, cell-based
Conditions: read-out: Ratio EC50

Row | Structure (SMILES) | selectivity ratio
29 | CN1CCN(CCNc2nc(Nc3ccc(Cl)c(F)c3)nc3ccccc23)CC1.Cl.Cl | 275
30 | CN1CCC(Nc2nc(Nc3ccc(Cl)c(F)c3)nc3ccccc23)CC1.Cl.Cl | 179

System: Plasma
Assay: Drug uptake in Plasmodium berghei ANKA infected Swiss black mouse plasma at 20 mg/kg, ip measured after 20 hrs
Format: ADME, organism-based
Conditions: in vivo

Row | Structure (SMILES) | Drug uptake
31 | CN1CCN(CCNc2nc(Nc3ccc(Cl)c(F)c3)nc3ccccc23)CC1.Cl.Cl | Active
32 | CN1CCC(Nc2nc(Nc3ccc(Cl)c(F)c3)nc3ccccc23)CC1.Cl.Cl | Active

System: Plasmodium falciparum
Assay: Antimalarial activity against chloroquine and mefloquine resistant Plasmodium falciparum W2mef infected in human erythrocytes incubated for 72 hrs by LDH assay
Format: functional, cell-based
Conditions: not given

Row | Structure (SMILES) | EC50 [nM]
33 | CN1CCN(CCNc2nc(Nc3ccc(Cl)c(F)c3)nc3ccccc23)CC1.Cl.Cl | 57
34 | CN1CCC(Nc2nc(Nc3ccc(Cl)c(F)c3)nc3ccccc23)CC1.Cl.Cl | 61

System: Plasmodium berghei
Assay: Antimalarial activity against Plasmodium berghei ANKA infected Swiss black mouse model at 20 mg/kg administered via oral gavage for 4 days starting 4 hrs post infection by microscopic method
Format: functional
Conditions: not given

Row | Structure (SMILES) | Activity [%]
35 | CN1CCN(CCNc2nc(Nc3ccc(Cl)c(F)c3)nc3ccccc23)CC1.Cl.Cl | >90

System: Plasmodium falciparum
Assay: Antimalarial activity against synchronous culture of Plasmodium falciparum 3D7 ring stage parasite infected in human erythrocytes incubated for 3 hrs followed by compound wash out and measured after 24 hrs by NanoGlo-reagent based bioluminescence assay
Format: functional, cell-based
Conditions: not given

Row | Structure (SMILES) | EC50 [nM]
36 | CN1CCN(CCNc2nc(Nc3ccc(Cl)c(F)c3)nc3ccccc23)CC1.Cl.Cl | 3340

System: not listed separately
Assay: Hepatic extraction ratio in human liver microsomes at 1 uM in presence of NADPH by LC-MS method
Format: ADME, microsome
Conditions: read-out: ERH

Row | Structure (SMILES) | hepatic extraction ratio at 1 µM
37 | CN1CCN(CCNc2nc(Nc3ccc(Cl)c(F)c3)nc3ccccc23)CC1.Cl.Cl | 0.47
38 | CN1CCC(Nc2nc(Nc3ccc(Cl)c(F)c3)nc3ccccc23)CC1.Cl.Cl | 0.28

System: not listed separately
Assay: Ratio of EC50 for Plasmodium falciparum NF54-pfs16-LUC-GFP early stage gametocytes to EC50 for Plasmodium falciparum 3D7 asexual blood stage infected in human erythrocytes
Format: functional
Conditions: not given

Row | Structure (SMILES) | Ratio EC50
39 | CN1CCN(CCNc2nc(Nc3ccc(Cl)c(F)c3)nc3ccccc23)CC1.Cl.Cl | 15 - 25
40 | CN1CCC(Nc2nc(Nc3ccc(Cl)c(F)c3)nc3ccccc23)CC1.Cl.Cl | 15 - 25

System: not listed separately
Assay: Aqueous solubility of the compound at pH 6.5 by nephelometry
Format: physicochemical
Conditions: not given

Row | Structure (SMILES) | solubility kinetic [µM]
41 | CN1CCN(CCNc2nc(Nc3ccc(Cl)c(F)c3)nc3ccccc23)CC1.Cl.Cl | 10.9 to 22
42 | CN1CCC(Nc2nc(Nc3ccc(Cl)c(F)c3)nc3ccccc23)CC1.Cl.Cl | 4.2 to 8.4

System: not listed separately
Assay: Half life in human liver microsomes at 1 uM in presence of NADPH by LC-MS method
Format: ADME, microsome
Conditions: not given

Row | Structure (SMILES) | half-life at 1 µM [h]
43 | CN1CCN(CCNc2nc(Nc3ccc(Cl)c(F)c3)nc3ccccc23)CC1.Cl.Cl | 1.28
44 | CN1CCC(Nc2nc(Nc3ccc(Cl)c(F)c3)nc3ccccc23)CC1.Cl.Cl | 3.02

System: HepG2
Assay: Cytotoxicity against human HepG2 cells assessed as growth inhibition after 48 hrs by Cell Titer-Glo assay
Format: cell-based
Conditions: HepG2, 48 h

Row | Structure (SMILES) | EC50 [nM]
45 | CN1CCN(CCNc2nc(Nc3ccc(Cl)c(F)c3)nc3ccccc23)CC1.Cl.Cl | 7500
46 | CN1CCC(Nc2nc(Nc3ccc(Cl)c(F)c3)nc3ccccc23)CC1.Cl.Cl | 5100

System: Plasmodium falciparum
Assay: Antimalarial activity against Plasmodium falciparum NF54 harboring pfs16-LUC-GFP early stage 1 to 3 gametocytes after 48 hrs by MitoTracker Red staining based confocal microscopy
Format: functional
Conditions: NF54, 48 h

Row | Structure (SMILES) | EC50 [nM]
47 | CN1CCN(CCNc2nc(Nc3ccc(Cl)c(F)c3)nc3ccccc23)CC1.Cl.Cl | 453
48 | CN1CCC(Nc2nc(Nc3ccc(Cl)c(F)c3)nc3ccccc23)CC1.Cl.Cl | 554

System: Plasmodium falciparum
Assay: Antimalarial activity against synchronous culture of Plasmodium falciparum 3D7 ring stage parasite infected in human erythrocytes incubated for 24 hrs followed by compound wash out and measured after 24 hrs by NanoGlo-reagent based bioluminescence assay
Format: functional, cell-based
Conditions: 3D7, 24 h

Row | Structure (SMILES) | EC50 [nM]
49 | CN1CCN(CCNc2nc(Nc3ccc(Cl)c(F)c3)nc3ccccc23)CC1.Cl.Cl | 637

System: Plasmodium falciparum
Assay: Antimalarial activity against synchronous culture of Plasmodium falciparum 3D7 ring stage parasite infected in human erythrocytes incubated for 6 hrs followed by compound wash out and measured after 24 hrs by NanoGlo-reagent based bioluminescence assay
Format: functional, cell-based
Conditions: not given

Row | Structure (SMILES) | Activity | EC50 [nM]
50 | CN1CCN(CCNc2nc(Nc3ccc(Cl)c(F)c3)nc3ccccc23)CC1.Cl.Cl | Dose dependent effect | 3120

System: Plasmodium berghei
Assay: Antimalarial activity against Plasmodium berghei ANKA infected Swiss black mouse at 20 mg/kg, ip administered for 4 days starting 4 hrs post infection by microscopic method
Format: functional
Conditions: not given

Row | Structure (SMILES) | Activity [%]
51 | CN1CCN(CCNc2nc(Nc3ccc(Cl)c(F)c3)nc3ccccc23)CC1.Cl.Cl | >98

System: not listed separately
Assay: Aqueous solubility of the compound at pH 2 by nephelometry
Format: physicochemical
Conditions: not given

Row | Structure (SMILES) | solubility kinetic [µM]
52 | CN1CCN(CCNc2nc(Nc3ccc(Cl)c(F)c3)nc3ccccc23)CC1.Cl.Cl | > 90
53 | CN1CCC(Nc2nc(Nc3ccc(Cl)c(F)c3)nc3ccccc23)CC1.Cl.Cl | > 90

System: not listed separately
Assay: Intrinsic clearance in mouse liver microsomes at 1 uM in presence of NADPH by LC-MS method
Format: ADME, microsome
Conditions: read-out: CLH

Row | Structure (SMILES) | microsomal CLint at 1 µM [µL/min/mg]
54 | CN1CCN(CCNc2nc(Nc3ccc(Cl)c(F)c3)nc3ccccc23)CC1.Cl.Cl | 37
55 | CN1CCC(Nc2nc(Nc3ccc(Cl)c(F)c3)nc3ccccc23)CC1.Cl.Cl | 9
